Assay results from PubChem BioAssay (NCI).
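GI50 is the concentration that inhibits growth by half. TGI: total growth inhibition.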

What was measured:
Assay in all cases: inhibition of tumour cell growth, NCI panel, 384-well format; in the data active means GI50 below about 0.43 µM; inactive means the rest
OVCAR-4 ovarian = system: OVCAR-4 ovarian
MALME-3M melanoma = system: MALME-3M melanoma
A549 NSCLC = system: A549 NSCLC
MDA-MB-468 breast = system: MDA-MB-468 breast
MOLT-4 leukemia = system: MOLT-4 leukemia
HCT-116 colon = system: HCT-116 colon
OVCAR-3 ovarian = system: OVCAR-3 ovarian
NCI-H23 lung = system: NCI-H23 lung
OVCAR-5 ovarian = system: OVCAR-5 ovarian
HOP-62 NSCLC = system: HOP-62 NSCLC
MDA-MB-435 melanoma = system: MDA-MB-435 melanoma
SK-MEL-2 melanoma = system: SK-MEL-2 melanoma
UACC-62 melanoma = system: UACC-62 melanoma
NCI-H522 lung = system: NCI-H522 lung
SN12C renal = system: SN12C renal
M14 melanoma = system: M14 melanoma
PC-3 prostate = system: PC-3 prostate
HCC-2998 colon = system: HCC-2998 colon
CCRF-CEM leukemia = system: CCRF-CEM leukemia
RPMI-8226 leukemia = system: RPMI-8226 leukemia
IGROV1 ovarian = system: IGROV1 ovarian
K-562 leukemia = system: K-562 leukemia
OVCAR-8 ovarian = system: OVCAR-8 ovarian
ACHN renal = system: ACHN renal
CAKI-1 renal = system: CAKI-1 renal
SR leukemia = system: SR leukemia
UACC-257 melanoma = system: UACC-257 melanoma
NCI-H460 NSCLC = system: NCI-H460 NSCLC
SNB-75 CNS = system: SNB-75 CNS
COLO 205 colon = system: COLO 205 colon
DU-145 prostate = system: DU-145 prostate
HT29 colon = system: HT29 colon
HL-60(TB) leukemia = system: HL-60(TB) leukemia
NCI/ADR-RES ovarian = system: NCI/ADR-RES ovarian
SNB-19 CNS = system: SNB-19 CNS
A498 renal = system: A498 renal
SK-OV-3 ovarian = system: SK-OV-3 ovarian
HOP-92 NSCLC = system: HOP-92 NSCLC
SF-295 CNS = system: SF-295 CNS
SF-539 CNS = system: SF-539 CNS
MCF7 breast = system: MCF7 breast
TK-10 renal = system: TK-10 renal
U251 glioblastoma = system: U251 glioblastoma
RXF 393 renal = system: RXF 393 renal
EKVX NSCLC = system: EKVX NSCLC
HCT-15 colon = system: HCT-15 colon
SW-620 colon = system: SW-620 colon

N#CCC1(n2cc(-c3ncnc4[nH]ccc34)cn2)CN(C2CCN(C(=O)c3ccnc(C(F)(F)F)c3F)CC2)C1
97.7 µM: TGI (HL-60(TB) leukemia)
70.6 µM: TGI (COLO 205 colon)
39.2 µM: TGI (NCI-H522 lung)
39.4 µM: TGI (SR leukemia)
44.9 µM: TGI (CCRF-CEM leukemia)
65.7 µM: TGI (RPMI-8226 leukemia)
> 100 µM: TGI (OVCAR-4 ovarian) | TGI (MALME-3M melanoma) | TGI (A549 NSCLC) | TGI (HCT-116 colon) | TGI (OVCAR-3 ovarian) | TGI (NCI-H23 lung) | TGI (OVCAR-5 ovarian) | TGI (HOP-62 NSCLC) | TGI (MDA-MB-435 melanoma) | TGI (SK-MEL-2 melanoma) | TGI (UACC-62 melanoma) | TGI (SN12C renal) | TGI (M14 melanoma) | TGI (PC-3 prostate) | TGI (HCC-2998 colon) | TGI (IGROV1 ovarian) | TGI (K-562 leukemia) | TGI (OVCAR-8 ovarian) | TGI (ACHN renal) | TGI (CAKI-1 renal) | TGI (UACC-257 melanoma) | TGI (NCI-H460 NSCLC) | TGI (SNB-75 CNS) | TGI (DU-145 prostate) | TGI (HT29 colon) | TGI (NCI/ADR-RES ovarian) | TGI (SNB-19 CNS) | TGI (A498 renal) | TGI (SK-OV-3 ovarian) | TGI (HOP-92 NSCLC) | TGI (SF-295 CNS) | TGI (SF-539 CNS) | TGI (MCF7 breast) | TGI (TK-10 renal) | TGI (U251 glioblastoma) | TGI (RXF 393 renal) | TGI (EKVX NSCLC) | TGI (HCT-15 colon) | TGI (SW-620 colon)
50.5 µM: TGI (MDA-MB-468 breast)
35.4 µM: TGI (MOLT-4 leukemia)
inactive: GI50 (OVCAR-4 ovarian) > 100 µM | GI50 (MALME-3M melanoma) > 75.4 µM | GI50 (A549 NSCLC) > 61.3 µM | GI50 (MDA-MB-468 breast) 17.6 µM | GI50 (MOLT-4 leukemia) 16.8 µM | GI50 (HCT-116 colon) > 79.5 µM | GI50 (OVCAR-3 ovarian) > 71.5 µM | GI50 (NCI-H23 lung) 31.7 µM | GI50 (OVCAR-5 ovarian) > 100 µM | GI50 (HOP-62 NSCLC) > 68.2 µM | GI50 (MDA-MB-435 melanoma) > 100 µM | GI50 (SK-MEL-2 melanoma) > 100 µM | GI50 (UACC-62 melanoma) > 61.3 µM | GI50 (NCI-H522 lung) 18.4 µM | GI50 (SN12C renal) 83.1 µM | GI50 (M14 melanoma) > 88.6 µM | GI50 (PC-3 prostate) > 100 µM | GI50 (HCC-2998 colon) > 100 µM | GI50 (CCRF-CEM leukemia) 20.6 µM | GI50 (RPMI-8226 leukemia) 22.2 µM | GI50 (IGROV1 ovarian) > 76 µM | GI50 (K-562 leukemia) 34.5 µM | GI50 (OVCAR-8 ovarian) > 100 µM | GI50 (ACHN renal) > 64.7 µM | GI50 (CAKI-1 renal) > 84.9 µM | GI50 (SR leukemia) 23.9 µM | GI50 (UACC-257 melanoma) > 81.8 µM | GI50 (NCI-H460 NSCLC) 49.6 µM | GI50 (SNB-75 CNS) > 58 µM | GI50 (COLO 205 colon) 28.5 µM | GI50 (DU-145 prostate) 97.1 µM | GI50 (HT29 colon) > 73 µM | GI50 (HL-60(TB) leukemia) > 62 µM | GI50 (NCI/ADR-RES ovarian) > 100 µM | GI50 (SNB-19 CNS) > 100 µM | GI50 (A498 renal) > 100 µM | GI50 (SK-OV-3 ovarian) > 73.7 µM | GI50 (HOP-92 NSCLC) 40.1 µM | GI50 (SF-295 CNS) 72.9 µM | GI50 (SF-539 CNS) > 76.2 µM | GI50 (MCF7 breast) > 71.8 µM | GI50 (TK-10 renal) > 100 µM | GI50 (U251 glioblastoma) > 100 µM | GI50 (RXF 393 renal) 58.3 µM | GI50 (EKVX NSCLC) > 70 µM | GI50 (HCT-15 colon) > 78.9 µM | GI50 (SW-620 colon) > 61.1 µM

CNCc1ccc(-c2[nH]c3cc(F)cc4c3c2CCNC4=O)cc1
27.9 µM: TGI (HOP-92 NSCLC)
31 µM: TGI (OVCAR-3 ovarian) | TGI (SN12C renal)
38 µM: TGI (PC-3 prostate)
38.2 µM: TGI (OVCAR-4 ovarian)
29.5 µM: TGI (A549 NSCLC)
24.8 µM: TGI (NCI-H23 lung)
38.9 µM: TGI (OVCAR-5 ovarian)
46.5 µM: TGI (TK-10 renal)
19.4 µM: TGI (HCT-116 colon)
> 92.6 µM: TGI (NCI/ADR-RES ovarian)
45.3 µM: TGI (SK-OV-3 ovarian)
22.4 µM: TGI (SF-295 CNS)
30.7 µM: TGI (MALME-3M melanoma)
34.2 µM: TGI (MDA-MB-435 melanoma)
26.4 µM: TGI (UACC-257 melanoma) | TGI (SNB-75 CNS)
18.7 µM: TGI (MCF7 breast)
32.5 µM: TGI (U251 glioblastoma)
11.5 µM: TGI (MDA-MB-468 breast)
5.64 µM: TGI (MOLT-4 leukemia)
25 µM: TGI (UACC-62 melanoma)
21.6 µM: TGI (RPMI-8226 leukemia)
19.1 µM: TGI (HL-60(TB) leukemia)
29.3 µM: TGI (NCI-H522 lung) | TGI (A498 renal)
3.93 µM: TGI (SR leukemia)
23.6 µM: TGI (SW-620 colon)
23.1 µM: TGI (COLO 205 colon)
23.8 µM: TGI (HCC-2998 colon) | TGI (RXF 393 renal)
13.1 µM: TGI (CCRF-CEM leukemia)
> 48.4 µM: TGI (SNB-19 CNS)
31.1 µM: TGI (HCT-15 colon)
28 µM: TGI (M14 melanoma)
23.4 µM: TGI (HOP-62 NSCLC) | TGI (HT29 colon)
30.9 µM: TGI (EKVX NSCLC)
25.1 µM: TGI (SF-539 CNS)
25.4 µM: TGI (IGROV1 ovarian)
20.1 µM: TGI (K-562 leukemia)
28.6 µM: TGI (ACHN renal)
27.4 µM: TGI (DU-145 prostate)
inactive: GI50 (OVCAR-4 ovarian) 21 µM | GI50 (MALME-3M melanoma) 16.9 µM | GI50 (A549 NSCLC) 14.7 µM | GI50 (MDA-MB-468 breast) 4.13 µM | GI50 (MOLT-4 leukemia) 2.17 µM | GI50 (HCT-116 colon) 6.6 µM | GI50 (OVCAR-3 ovarian) 16 µM | GI50 (NCI-H23 lung) 12.1 µM | GI50 (OVCAR-5 ovarian) 15.8 µM | GI50 (HOP-62 NSCLC) 9.39 µM | GI50 (MDA-MB-435 melanoma) 19 µM | GI50 (SK-MEL-2 melanoma) 11.9 µM | GI50 (UACC-62 melanoma) 12.4 µM | GI50 (NCI-H522 lung) 15.6 µM | GI50 (SN12C renal) 14.9 µM | GI50 (M14 melanoma) 14.7 µM | GI50 (PC-3 prostate) 16.1 µM | GI50 (HCC-2998 colon) 11.3 µM | GI50 (CCRF-CEM leukemia) 3.68 µM | GI50 (RPMI-8226 leukemia) 8.37 µM | GI50 (IGROV1 ovarian) 10.4 µM | GI50 (K-562 leukemia) 7.92 µM | GI50 (OVCAR-8 ovarian) 10.4 µM | GI50 (ACHN renal) 11.5 µM | GI50 (CAKI-1 renal) 7.56 µM | GI50 (SR leukemia) 1.54 µM | GI50 (UACC-257 melanoma) 12.8 µM | GI50 (NCI-H460 NSCLC) 6.31 µM | GI50 (SNB-75 CNS) 13.2 µM | GI50 (COLO 205 colon) 9.97 µM | GI50 (DU-145 prostate) 13.9 µM | GI50 (HT29 colon) 10 µM | GI50 (HL-60(TB) leukemia) 8.28 µM | GI50 (NCI/ADR-RES ovarian) 38.7 µM | GI50 (SNB-19 CNS) 19 µM | GI50 (A498 renal) 15.7 µM | GI50 (SK-OV-3 ovarian) 20.6 µM | GI50 (HOP-92 NSCLC) 12.9 µM | GI50 (SF-295 CNS) 8.3 µM | GI50 (SF-539 CNS) 12.4 µM | GI50 (MCF7 breast) 6.36 µM | GI50 (TK-10 renal) 18.8 µM | GI50 (U251 glioblastoma) 14.4 µM | GI50 (RXF 393 renal) 10.6 µM | GI50 (EKVX NSCLC) 16.1 µM | GI50 (HCT-15 colon) 15.1 µM | GI50 (SW-620 colon) 7.46 µM
24.3 µM: TGI (SK-MEL-2 melanoma)
23.7 µM: TGI (OVCAR-8 ovarian)
19.8 µM: TGI (CAKI-1 renal)
19.6 µM: TGI (NCI-H460 NSCLC)
